Test results reported in US4127714A, “Anthracycline glycosides” (priority 1976, dated 1978).
Values after ≈ are worked out from the molar mass of the structure shown. Counter-ions that a name gives are not always drawn.

Legend:
animal tumor systems = conditions: reported in literature; cited from earlier work
mouse L1210 leukemia = experiment: Prolongation of survival time of CDF1 mice inoculated intraperitoneally with L1210 leukemia cells; format: in vivo, mouse (CDF1); conditions: for inhibitory effects on mouse L1210 leukemia: summary statement in words
Experimental: Rhodirubin A and B show a marked antitumor activity with low toxicity in experimental animal tests and thus are therapeutically useful in inhibiting the growth of animal tumors. […] For example, CDF1 mice were inoculated intraperitoneally with 1 × 10^6 L1210 cells/mouse and 0.1-0.2 ml. of drug solution then administered intraperitoneally for 10 consecutive days. Observation was carried out for 30 days, and the % of prolongation of survival time to the control mice intraperitoneally administered with physiological saline was as follows: […]

B. cereus ATCC 9634 = experiment: Minimum inhibitory concentration, broth dilution method; format: cell-based; conditions: Bacillus cereus, ATCC9634
Proteus morganii = experiment: as above; format: cell-based; conditions: Morganella morganii
[1] = tested on: solid and ascitic forms of malignant tumors in mammals, e.g. mouse leukemia L1210; experiment: Inhibition of growth of solid and ascitic malignant tumors in mammals (summary statement); format: in vivo
gram-positive bacteria = experiment: Antimicrobial activity (summary statement); format: cell-based; conditions: against gram-positive bacteria
Sarcina lutea ATCC 9341 = experiment: Minimum inhibitory concentration, broth dilution method; format: cell-based; conditions: Micrococcus luteus, ATCC9341
in vivo = conditions: mouse, ip, mice, intraperitoneal injection
Excerpt: The LD50 values upon intraperitoneal injection (in mice) of rhodirubin A and B are as follows: […]

Coryne: bovis = experiment: Minimum inhibitory concentration, broth dilution method; format: cell-based
[2] = tested on: Candida albicans IAM 4905; experiment: as above; format: cell-based; conditions: IAM4905
Staph. aureus Smith = experiment: as above; format: cell-based; conditions: Staphylococcus aureus
[3] = Toxicity in experimental animal tests (summary statement); conditions: summary statement in words
Staph. aureus FDA 209P = experiment: Minimum inhibitory concentration, broth dilution method; format: cell-based; conditions: Staphylococcus aureus, FDA209P
mammalian tumor cells = experiment: Cytotoxicity to mammalian tumor cells in culture
B. megaterium NRRL-938 = experiment: Minimum inhibitory concentration, broth dilution method; format: cell-based; conditions: Priestia megaterium, NRRL938
Micrococcus flavus = experiment: as above; format: cell-based
[4] = tested on: Candida tropicalis IAM 4942; experiment: as above; format: cell-based; conditions: IAM4942
[5] = tested on: Mycobacterium smegmatis ATCC 607; experiment: as above; format: cell-based; conditions: Mycolicibacterium smegmatis, ATCC607
B. subtilis ATCC 6633 = experiment: as above; format: cell-based; conditions: Bacillus subtilis, ATCC6633
[6] = tested on: Ps. fluorescens NIHJB-254; experiment: as above; format: cell-based; conditions: Pseudomonas fluorescens, NIHJB254
[7] = in methanol, n-butanol, acetone, ethyl acetate, chloroform, toluene, benzene and dimethylsulfoxide
[8] = in water, n-hexane and petroleum ether

| Compound | MIC (B. cereus ATCC 9634) [µg/mL] | inhibitory effects on mouse L1210 leukemia (mouse L1210 leukemia) | MIC (Proteus morganii) [µg/mL] | inhibition of growth of malignant tumors [1] | antimicrobial activity (gram-positive bacteria) | Solubility (Solubility; in diethyl ether) | Solubility (Solubility; [7]) | Solubility (Solubility; [8]) | MIC (Sarcina lutea ATCC 9341) [µg/mL] | LD50 (in vivo) [mg/kg] | MIC (Coryne: bovis) [µg/mL] | MIC [2] [µg/mL] | MIC (Staph. aureus Smith) [µg/mL] | toxicity [3] | MIC (Staph. aureus FDA 209P) [µg/mL] | cytotoxicity (mammalian tumor cells) | MIC (B. megaterium NRRL-938) [µg/mL] | MIC (Micrococcus flavus) [µg/mL] | MIC [4] [µg/mL] | MIC [5] [µg/mL] | other results |
| --- | --- | --- | --- | --- | --- | --- | --- | --- | --- | --- | --- | --- | --- | --- | --- | --- | --- | --- | --- | --- | --- |
| CC(=O)[C@]1(O)Cc2c(O)c3c(c(O)c2[C@@H](O[C@H]2C[C@H](N)[C@H](O)[C@H](C)O2)C1)C(=O)c1c(O)cccc1C3=O [carminomycin] |  |  |  |  |  |  |  |  |  |  |  |  |  |  |  |  |  |  |  |  | activity against several animal tumor systems (animal tumor systems): active against several animal tumor systems |
| CCC1(O)CC(OC2CC(N(C)C)C(OC3CC(O)C(OC4CCC(O)C(C)O4)C(C)O3)C(C)O2)c2c(cc3c(c2O)C(=O)c2c(O)ccc(O)c2C3=O)C1C(=O)OC (centres unmarked) [rhodirubin A (HC1 salt)] |  |  |  |  |  |  |  |  |  |  |  |  |  |  |  |  |  |  |  |  | Prolongation of the survival time T/C (%) (mouse L1210 leukemia; ip, 0.6 mg/kg, 720 h): 102%; Prolongation of the survival time T/C (%) (mouse L1210 leukemia; ip, 1.25 mg/kg, 720 h): 117%; Prolongation of the survival time T/C (%) (mouse L1210 leukemia; ip, 2.5 mg/kg, 720 h): 167%; Prolongation of the survival time T/C (%) (mouse L1210 leukemia; ip, 5 mg/kg, 720 h): 195%; Prolongation of the survival time T/C (%) (mouse L1210 leukemia; ip, 8.5 mg/kg, 720 h): 121%; Prolongation of the survival time T/C (%) (mouse L1210 leukemia; ip, 10 mg/kg, 720 h): 87% |
| CCC1(O)CC(OC2CC(N(C)C)C(OC3CC(O)C(OC4CCC(O)C(C)O4)C(C)O3)C(C)O2)c2c(cc3c(c2O)C(=O)c2c(O)ccc(O)c2C3=O)C1C(=O)OC (centres unmarked) [rhodirubin A] | 0.2 (≈ 0.241 µM) | marked inhibitory effects | > 100 | inhibit the growth of solid and ascitic forms of malignant tumors in mammals | possess antimicrobial activity, especially against gram-positive bacteria | slightly soluble | soluble | insoluble | 0.4 (≈ 0.482 µM) | 7.5 to 10 | 0.2 (≈ 0.241 µM) | > 100 | 0.4 (≈ 0.482 µM) | low toxicity | 1.56 (≈ 1.88 µM) | high cytotoxicity | 0.78 (≈ 0.94 µM) | 0.2 (≈ 0.241 µM) | > 100 | 6.25 (≈ 7.53 µM) | antimicrobial activity (gram-positive bacteria; listed as Rhodirubin A): exhibit antimicrobial activity against gram-positive bacteria; MIC (B. subtilis ATCC 6633): 0.78 µg/mL (≈ 0.94 µM); MIC [6]: 100 µg/mL (≈ 120 µM) |
| CCC1(O)CC(OC2CC(N(C)C)C(OC3CCC(OC4CCC(O)C(C)O4)C(C)O3)C(C)O2)c2c(cc3c(c2O)C(=O)c2c(O)ccc(O)c2C3=O)C1C(=O)OC (centres unmarked) [rhodirubin B (HC1 salt)] |  |  |  |  |  |  |  |  |  |  |  |  |  |  |  |  |  |  |  |  | Prolongation of the survival time T/C (%) (mouse L1210 leukemia; 0.6 mg./kg./day, i.p., 10 consecutive days, observed 30 days, vs physiological saline controls): 107%; Prolongation of the survival time T/C (%) (mouse L1210 leukemia; 1.25 mg./kg./day, i.p., 10 consecutive days, observed 30 days, vs physiological saline controls): 126%; Prolongation of the survival time T/C (%) (mouse L1210 leukemia; 2.5 mg./kg./day, i.p., 10 consecutive days, observed 30 days, vs physiological saline controls): 215%; Prolongation of the survival time T/C (%) (mouse L1210 leukemia; 5 mg./kg./day, i.p., 10 consecutive days, observed 30 days, vs physiological saline controls): 179%; Prolongation of the survival time T/C (%) (mouse L1210 leukemia; 8.5 mg./kg./day, i.p., 10 consecutive days, observed 30 days, vs physiological saline controls): 160%; Prolongation of the survival time T/C (%) (mouse L1210 leukemia; 10 mg./kg./day, i.p., 10 consecutive days, observed 30 days, vs physiological saline controls): 104% |
| CCC1(O)CC(OC2CC(N(C)C)C(OC3CCC(OC4CCC(O)C(C)O4)C(C)O3)C(C)O2)c2c(cc3c(c2O)C(=O)c2c(O)ccc(O)c2C3=O)C1C(=O)OC (centres unmarked) [rhodirubin B] | 0.4 (≈ 0.491 µM) | marked inhibitory effects | > 100 | inhibit the growth of solid and ascitic forms of malignant tumors in mammals | possess antimicrobial activity, especially against gram-positive bacteria | slightly soluble | soluble | insoluble | 0.78 (≈ 0.958 µM) | 10 to 12.5 | 0.4 (≈ 0.491 µM) | > 100 | 0.78 (≈ 0.958 µM) | low toxicity | 1.56 (≈ 1.92 µM) | high cytotoxicity | 1.56 (≈ 1.92 µM) | 0.2 (≈ 0.246 µM) | > 100 | 3.1 (≈ 3.81 µM) | antimicrobial activity (gram-positive bacteria; listed as Rhodirubin B): exhibit antimicrobial activity against gram-positive bacteria; MIC (B. subtilis ATCC 6633): 1.56 µg/mL (≈ 1.92 µM); MIC [6]: 100 µg/mL (≈ 123 µM) |
